In the kinase profiling compilation of Christmann-Franck et al. (2016):

How the values were obtained:
Experiment in all cases: radiometric filter-binding kinase assay
BRSK1 (human) = BRSK1 (human) (UniProt Q8TDC3)
BRSK2 (human) = BRSK2 (human) (UniProt Q8IWQ3)
CAMKK2 (human) = CAMKK2 (human) (UniProt Q96RR4)
DAPK1 (human) = DAPK1 (human) (UniProt P53355)
DYRK1A (human) = DYRK1A (human) (UniProt Q13627)
EEF2K (human) = EEF2K (human) (UniProt O00418)
EPHB4 (human) = EPHB4 (human) (UniProt P54760)
ERBB4 (human) = ERBB4 (human) (UniProt Q15303)
FGFR1 (human) = FGFR1 (human) (UniProt P11362)
GSK3B (human) = GSK3B (human) (UniProt P49841)
HIPK3 (human) = HIPK3 (human) (UniProt Q9H422)
IGF1R (human) = IGF1R (human) (UniProt P08069)
IKBKE (human) = IKBKE (human) (UniProt Q14164)
MAP2K2 (human) = MAP2K2 (human) (UniProt P36507)
MAP2K6 (human) = MAP2K6 (human) (UniProt P52564)
MAP3K5 (human) = MAP3K5 (human) (UniProt Q99683)
MAPK12 (human) = MAPK12 (human) (UniProt P53778)
MAPK13 (human) = MAPK13 (human) (UniProt O15264)
MAPK3 (human) = MAPK3 (human) (UniProt P27361)
MAPK9 (human) = MAPK9 (human) (UniProt P45984)
MAPKAPK2 (human) = MAPKAPK2 (human) (UniProt P49137); settings: compound 1.0 µM
MARK1 (human) = MARK1 (human) (UniProt Q9P0L2)
MELK (human) = MELK (human) (UniProt Q14680)
MKNK1 (human) = MKNK1 (human) (UniProt Q9BUB5)
PAK7 (human) = PAK7 (human) (UniProt Q9P286)
PHKG1 (human) = PHKG1 (human) (UniProt Q16816)
PIM1 (human) = PIM1 (human) (UniProt P11309)
PIM2 (human) = PIM2 (human) (UniProt Q9P1W9)
PIM3 (human) = PIM3 (human) (UniProt Q86V86)
PRKAA1 or PRKAA2 (rat) = settings: accession and sequence are those of the human protein
PRKACA (human) = PRKACA (human) (UniProt P17612)
PRKCZ (human) = PRKCZ (human) (UniProt Q05513)
[1] = system: SGK1 (human), O00141 [S422D]
STK3 (human) = STK3 (human) (UniProt Q13188)
SYK (human) = SYK (human) (UniProt P43405)

MELK (human), sequence (Q14680 whole entry, looked up): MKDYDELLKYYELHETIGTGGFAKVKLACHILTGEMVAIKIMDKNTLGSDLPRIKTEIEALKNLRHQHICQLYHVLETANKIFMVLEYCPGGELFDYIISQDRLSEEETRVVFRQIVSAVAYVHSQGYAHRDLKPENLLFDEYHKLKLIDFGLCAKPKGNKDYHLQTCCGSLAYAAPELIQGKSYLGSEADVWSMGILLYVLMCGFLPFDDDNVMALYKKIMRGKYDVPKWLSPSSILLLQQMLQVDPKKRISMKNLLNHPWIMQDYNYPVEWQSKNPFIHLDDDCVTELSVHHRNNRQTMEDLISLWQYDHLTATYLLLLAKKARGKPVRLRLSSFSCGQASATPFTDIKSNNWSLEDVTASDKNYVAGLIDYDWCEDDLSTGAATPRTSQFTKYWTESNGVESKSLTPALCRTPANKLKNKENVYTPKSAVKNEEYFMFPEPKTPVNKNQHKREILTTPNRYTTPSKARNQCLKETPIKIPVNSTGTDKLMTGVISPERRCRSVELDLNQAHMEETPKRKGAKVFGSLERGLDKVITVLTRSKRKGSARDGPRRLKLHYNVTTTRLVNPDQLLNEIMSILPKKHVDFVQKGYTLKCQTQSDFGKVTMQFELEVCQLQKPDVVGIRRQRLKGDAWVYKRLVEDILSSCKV
DAPK1 (human), sequence (P53355 whole entry, looked up): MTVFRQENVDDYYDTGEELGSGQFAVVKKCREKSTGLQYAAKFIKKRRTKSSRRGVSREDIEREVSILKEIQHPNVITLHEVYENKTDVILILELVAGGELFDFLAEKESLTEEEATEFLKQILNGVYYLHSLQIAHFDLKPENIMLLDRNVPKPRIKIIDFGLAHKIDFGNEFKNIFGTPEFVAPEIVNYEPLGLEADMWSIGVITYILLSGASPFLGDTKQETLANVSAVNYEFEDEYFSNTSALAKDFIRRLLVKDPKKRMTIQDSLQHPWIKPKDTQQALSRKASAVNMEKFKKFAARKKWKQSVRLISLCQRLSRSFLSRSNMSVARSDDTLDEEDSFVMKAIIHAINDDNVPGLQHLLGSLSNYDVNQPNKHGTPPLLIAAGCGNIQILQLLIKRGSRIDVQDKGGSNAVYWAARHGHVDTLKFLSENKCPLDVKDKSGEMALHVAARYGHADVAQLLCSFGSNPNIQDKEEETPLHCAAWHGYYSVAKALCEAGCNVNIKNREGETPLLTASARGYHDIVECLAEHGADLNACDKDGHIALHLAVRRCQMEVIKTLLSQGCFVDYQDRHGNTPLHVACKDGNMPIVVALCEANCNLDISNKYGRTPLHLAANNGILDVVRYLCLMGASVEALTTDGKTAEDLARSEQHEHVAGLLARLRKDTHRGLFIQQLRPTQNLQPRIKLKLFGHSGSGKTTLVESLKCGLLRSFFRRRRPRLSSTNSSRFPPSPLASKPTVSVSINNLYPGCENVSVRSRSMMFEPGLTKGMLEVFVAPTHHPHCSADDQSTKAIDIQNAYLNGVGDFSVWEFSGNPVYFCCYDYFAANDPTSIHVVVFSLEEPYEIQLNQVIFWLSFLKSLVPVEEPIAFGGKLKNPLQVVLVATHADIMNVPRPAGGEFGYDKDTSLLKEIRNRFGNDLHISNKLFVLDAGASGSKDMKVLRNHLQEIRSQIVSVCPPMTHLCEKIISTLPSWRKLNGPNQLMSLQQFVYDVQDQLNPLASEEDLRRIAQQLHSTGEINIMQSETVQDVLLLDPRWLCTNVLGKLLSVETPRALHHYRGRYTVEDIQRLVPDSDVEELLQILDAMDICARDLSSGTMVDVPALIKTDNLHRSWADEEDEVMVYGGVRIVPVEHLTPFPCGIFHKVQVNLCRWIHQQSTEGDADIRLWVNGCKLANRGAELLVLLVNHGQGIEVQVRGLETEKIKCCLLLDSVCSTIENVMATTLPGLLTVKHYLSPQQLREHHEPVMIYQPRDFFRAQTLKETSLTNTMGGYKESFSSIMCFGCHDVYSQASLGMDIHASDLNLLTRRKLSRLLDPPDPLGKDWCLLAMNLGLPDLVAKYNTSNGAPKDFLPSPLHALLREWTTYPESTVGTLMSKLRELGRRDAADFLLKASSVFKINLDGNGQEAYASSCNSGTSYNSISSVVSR
MAPK3 (human), sequence (P27361 whole entry, looked up): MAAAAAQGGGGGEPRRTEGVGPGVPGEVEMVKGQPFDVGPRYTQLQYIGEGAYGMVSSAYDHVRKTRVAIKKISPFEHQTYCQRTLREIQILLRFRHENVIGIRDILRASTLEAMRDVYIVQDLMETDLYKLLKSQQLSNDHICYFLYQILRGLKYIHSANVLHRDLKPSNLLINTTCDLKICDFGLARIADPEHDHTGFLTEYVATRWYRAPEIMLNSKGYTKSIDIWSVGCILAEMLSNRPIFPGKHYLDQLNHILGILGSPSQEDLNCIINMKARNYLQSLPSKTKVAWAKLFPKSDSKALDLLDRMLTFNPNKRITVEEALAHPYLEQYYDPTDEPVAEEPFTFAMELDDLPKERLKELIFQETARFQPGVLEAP
EEF2K (human), sequence (O00418 whole entry, looked up): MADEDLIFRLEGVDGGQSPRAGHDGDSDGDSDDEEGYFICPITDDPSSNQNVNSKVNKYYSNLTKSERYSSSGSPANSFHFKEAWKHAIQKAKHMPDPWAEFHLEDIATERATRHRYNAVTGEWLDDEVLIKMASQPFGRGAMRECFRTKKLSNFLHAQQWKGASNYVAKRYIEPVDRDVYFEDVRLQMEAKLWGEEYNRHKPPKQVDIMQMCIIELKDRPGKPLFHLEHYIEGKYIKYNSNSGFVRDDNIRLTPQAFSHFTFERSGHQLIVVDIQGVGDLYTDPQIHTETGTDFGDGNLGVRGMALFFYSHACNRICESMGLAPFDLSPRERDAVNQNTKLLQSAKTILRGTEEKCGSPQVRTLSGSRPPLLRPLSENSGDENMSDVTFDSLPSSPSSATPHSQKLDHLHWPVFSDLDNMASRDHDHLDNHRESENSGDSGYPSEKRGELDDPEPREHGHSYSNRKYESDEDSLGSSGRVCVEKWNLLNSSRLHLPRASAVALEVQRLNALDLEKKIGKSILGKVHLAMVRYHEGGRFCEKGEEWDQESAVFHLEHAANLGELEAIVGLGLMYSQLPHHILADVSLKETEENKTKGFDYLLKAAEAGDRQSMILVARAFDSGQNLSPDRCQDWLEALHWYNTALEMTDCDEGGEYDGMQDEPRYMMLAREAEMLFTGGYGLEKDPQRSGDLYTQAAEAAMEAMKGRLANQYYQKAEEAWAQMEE
BRSK1 (human), sequence (Q8TDC3 whole entry, looked up): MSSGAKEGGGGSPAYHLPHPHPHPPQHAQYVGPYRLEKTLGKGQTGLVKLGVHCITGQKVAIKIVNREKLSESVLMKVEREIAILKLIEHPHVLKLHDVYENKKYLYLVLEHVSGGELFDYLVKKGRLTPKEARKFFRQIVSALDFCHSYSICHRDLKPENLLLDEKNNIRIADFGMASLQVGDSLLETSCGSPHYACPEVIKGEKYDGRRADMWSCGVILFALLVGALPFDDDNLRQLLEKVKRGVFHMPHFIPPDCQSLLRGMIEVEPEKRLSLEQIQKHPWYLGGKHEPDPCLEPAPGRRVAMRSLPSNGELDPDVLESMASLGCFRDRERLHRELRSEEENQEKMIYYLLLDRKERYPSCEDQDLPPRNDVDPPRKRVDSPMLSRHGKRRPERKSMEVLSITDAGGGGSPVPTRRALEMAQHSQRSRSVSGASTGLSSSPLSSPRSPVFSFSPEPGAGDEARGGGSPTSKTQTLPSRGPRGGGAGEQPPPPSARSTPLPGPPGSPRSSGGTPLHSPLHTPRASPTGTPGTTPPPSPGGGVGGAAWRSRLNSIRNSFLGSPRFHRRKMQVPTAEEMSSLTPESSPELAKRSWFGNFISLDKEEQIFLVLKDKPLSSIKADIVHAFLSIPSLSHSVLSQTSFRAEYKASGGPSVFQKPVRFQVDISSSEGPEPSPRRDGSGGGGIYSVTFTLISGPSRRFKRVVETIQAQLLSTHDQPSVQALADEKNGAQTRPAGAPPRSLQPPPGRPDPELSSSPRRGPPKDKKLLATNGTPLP
MKNK1 (human), sequence (Q9BUB5 whole entry, looked up): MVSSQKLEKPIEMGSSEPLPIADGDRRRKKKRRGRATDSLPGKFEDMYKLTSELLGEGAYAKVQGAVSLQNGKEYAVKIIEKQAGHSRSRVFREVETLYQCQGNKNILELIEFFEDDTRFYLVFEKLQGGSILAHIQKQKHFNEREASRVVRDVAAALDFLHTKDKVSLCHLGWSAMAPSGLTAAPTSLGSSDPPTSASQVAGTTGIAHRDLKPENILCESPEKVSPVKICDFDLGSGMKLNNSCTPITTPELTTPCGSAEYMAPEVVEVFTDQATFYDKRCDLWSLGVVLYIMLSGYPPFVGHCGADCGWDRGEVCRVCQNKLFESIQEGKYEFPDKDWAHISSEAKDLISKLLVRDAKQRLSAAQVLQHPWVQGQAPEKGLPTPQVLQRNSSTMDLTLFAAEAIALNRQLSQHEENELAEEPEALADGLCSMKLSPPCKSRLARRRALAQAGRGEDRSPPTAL
PIM2 (human), sequence (Q9P1W9 whole entry, looked up): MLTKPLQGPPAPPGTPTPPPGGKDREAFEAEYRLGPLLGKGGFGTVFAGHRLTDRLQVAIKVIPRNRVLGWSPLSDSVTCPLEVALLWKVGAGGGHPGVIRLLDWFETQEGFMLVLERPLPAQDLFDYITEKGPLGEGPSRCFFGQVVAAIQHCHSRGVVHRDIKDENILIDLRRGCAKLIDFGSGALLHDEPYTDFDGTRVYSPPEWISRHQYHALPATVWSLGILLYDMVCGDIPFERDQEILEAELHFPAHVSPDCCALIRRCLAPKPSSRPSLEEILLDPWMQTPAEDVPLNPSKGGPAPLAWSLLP
PIM1 (human), sequence (P11309 whole entry, looked up): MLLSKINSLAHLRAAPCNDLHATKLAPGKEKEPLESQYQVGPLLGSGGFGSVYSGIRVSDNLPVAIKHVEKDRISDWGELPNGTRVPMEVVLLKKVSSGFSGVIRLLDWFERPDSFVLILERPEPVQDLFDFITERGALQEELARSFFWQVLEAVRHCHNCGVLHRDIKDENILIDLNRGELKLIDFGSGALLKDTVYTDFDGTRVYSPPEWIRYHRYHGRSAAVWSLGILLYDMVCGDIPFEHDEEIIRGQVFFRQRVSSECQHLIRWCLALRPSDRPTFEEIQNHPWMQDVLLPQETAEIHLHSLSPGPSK

residual activity (BRSK1 (human); compound 0.1 µM): 106% | residual activity (BRSK1 (human); compound 1.0 µM): 111% | residual activity (BRSK1 (human); compound 10.0 µM): 91% | residual activity (BRSK2 (human); compound 0.1 µM): 99% | residual activity (BRSK2 (human); compound 1.0 µM): 103% | residual activity (BRSK2 (human); compound 10.0 µM): 77% | residual activity (CAMKK2 (human); compound 0.1 µM): 115% | residual activity (CAMKK2 (human); compound 1.0 µM): 115% | residual activity (CAMKK2 (human); compound 10.0 µM): 99% | residual activity (DAPK1 (human); compound 0.1 µM): 108% | residual activity (DAPK1 (human); compound 1.0 µM): 95% | residual activity (DAPK1 (human); compound 10.0 µM): 108% | residual activity (DYRK1A (human); compound 0.1 µM): 92% | residual activity (DYRK1A (human); compound 1.0 µM): 94% | residual activity (DYRK1A (human); compound 10.0 µM): 100% | residual activity (EEF2K (human); compound 0.1 µM): 104% | residual activity (EEF2K (human); compound 1.0 µM): 100% | residual activity (EEF2K (human); compound 10.0 µM): 97% | residual activity (EPHB4 (human); compound 0.1 µM): 120% | residual activity (EPHB4 (human); compound 1.0 µM): 119% | residual activity (EPHB4 (human); compound 10.0 µM): 105% | residual activity (ERBB4 (human); compound 0.1 µM): 113% | residual activity (ERBB4 (human); compound 1.0 µM): 109% | residual activity (ERBB4 (human); compound 10.0 µM): 101% | residual activity (FGFR1 (human); compound 0.1 µM): 98% | residual activity (FGFR1 (human); compound 1.0 µM): 97% | residual activity (FGFR1 (human); compound 10.0 µM): 94% | residual activity (GSK3B (human); compound 0.1 µM): 114% | residual activity (GSK3B (human); compound 1.0 µM): 124% | residual activity (GSK3B (human); compound 10.0 µM): 127% | residual activity (HIPK3 (human); compound 0.1 µM): 96% | residual activity (HIPK3 (human); compound 1.0 µM): 94% | residual activity (HIPK3 (human); compound 10.0 µM): 58% | residual activity (IGF1R (human); compound 0.1 µM): 105% | residual activity (IGF1R (human); compound 1.0 µM): 123% | residual activity (IGF1R (human); compound 10.0 µM): 113% | residual activity (IKBKE (human); compound 0.1 µM): 96% | residual activity (IKBKE (human); compound 1.0 µM): 97% | residual activity (IKBKE (human); compound 10.0 µM): 61% | residual activity (MAP2K2 (human); compound 0.1 µM): 108% | residual activity (MAP2K2 (human); compound 10.0 µM): 120% | residual activity (MAP2K6 (human); compound 0.1 µM): 95% | residual activity (MAP2K6 (human); compound 10.0 µM): 109% | residual activity (MAP3K5 (human); compound 0.1 µM): 104% | residual activity (MAP3K5 (human); compound 1.0 µM): 100% | residual activity (MAPK12 (human); compound 0.1 µM): 114% | residual activity (MAPK12 (human); compound 1.0 µM): 116% | residual activity (MAPK12 (human); compound 10.0 µM): 103% | residual activity (MAPK13 (human); compound 0.1 µM): 106% | residual activity (MAPK13 (human); compound 1.0 µM): 110% | residual activity (MAPK13 (human); compound 10.0 µM): 92% | residual activity (MAPK3 (human); compound 0.1 µM): 99% | residual activity (MAPK3 (human); compound 1.0 µM): 100% | residual activity (MAPK3 (human); compound 10.0 µM): 109% | residual activity (MAPK9 (human); compound 0.1 µM): 112% | residual activity (MAPK9 (human); compound 1.0 µM): 114% | residual activity (MAPK9 (human); compound 10.0 µM): 119% | residual activity (MAPKAPK2 (human)): 56% | residual activity (MARK1 (human); compound 0.1 µM): 106% | residual activity (MARK1 (human); compound 1.0 µM): 115% | residual activity (MARK1 (human); compound 10.0 µM): 111% | residual activity (MELK (human); compound 0.1 µM): 98% | residual activity (MELK (human); compound 1.0 µM): 107% | residual activity (MELK (human); compound 10.0 µM): 123% | residual activity (MKNK1 (human); compound 0.1 µM): 98% | residual activity (MKNK1 (human); compound 1.0 µM): 100% | residual activity (MKNK1 (human); compound 10.0 µM): 108% | residual activity (PAK7 (human); compound 0.1 µM): 102% | residual activity (PAK7 (human); compound 1.0 µM): 116% | residual activity (PAK7 (human); compound 10.0 µM): 111% | residual activity (PHKG1 (human); compound 0.1 µM): 110% | residual activity (PHKG1 (human); compound 1.0 µM): 112% | residual activity (PHKG1 (human); compound 10.0 µM): 105% | residual activity (PIM1 (human); compound 0.1 µM): 109% | residual activity (PIM1 (human); compound 1.0 µM): 103% | residual activity (PIM1 (human); compound 10.0 µM): 94% | residual activity (PIM2 (human); compound 0.1 µM): 96% | residual activity (PIM2 (human); compound 1.0 µM): 102% | residual activity (PIM2 (human); compound 10.0 µM): 97% | residual activity (PIM3 (human); compound 0.1 µM): 95% | residual activity (PIM3 (human); compound 1.0 µM): 110% | residual activity (PIM3 (human); compound 10.0 µM): 83% | residual activity (PRKAA1 or PRKAA2 (rat); compound 0.1 µM): 99% | residual activity (PRKAA1 or PRKAA2 (rat); compound 1.0 µM): 100% | residual activity (PRKAA1 or PRKAA2 (rat); compound 10.0 µM): 90% | residual activity (PRKACA (human); compound 0.1 µM): 112% | residual activity (PRKACA (human); compound 1.0 µM): 109% | residual activity (PRKACA (human); compound 10.0 µM): 113% | residual activity (PRKCZ (human); compound 0.1 µM): 103% | residual activity (PRKCZ (human); compound 1.0 µM): 110% | residual activity (PRKCZ (human); compound 10.0 µM): 101% | residual activity ([1]; compound 0.1 µM): 110% | residual activity ([1]; compound 10.0 µM): 103% | residual activity (STK3 (human); compound 0.1 µM): 123% | residual activity (STK3 (human); compound 1.0 µM): 126% | residual activity (STK3 (human); compound 10.0 µM): 129% | residual activity (SYK (human); compound 1.0 µM): 115% | residual activity (SYK (human); compound 10.0 µM): 130%
SMILES: CC1=C(CO)C(=O)O[C@@H]([C@@H](C)[C@H]2CC[C@H]3[C@@H]4C[C@H]5O[C@]56[C@@H](O)C=CC(=O)[C@]6(C)C4CC[C@]23C)C1 (stereo partly drawn)
